For the assay, the system named is rat cortex cultures (cortical neurons). As to the kind of experiment: Neuronal survival (MAP-2 positive cell counts) in rat cortex cultures with PDC-induced chronic cortical degeneration under controlled gas atmosphere. The class given is cell-based. Also on record: key to Neuronal survival: +++=reference level; ++: a favorable response, synonymous with a decrease in neuronal cell death in the presence of the treatments of interest; +: a favorable response, synonymous with a decrease in neuronal cell death in the presence of the treatments of interest; an unfavorable response is represented by a “−” sign, synonymous with an increase in neuronal death. How it is done:
Cultures are prepared from rat embryo cortex taken from Wistar rates, on day 15.5 of gestation. The method for obtaining cortex cultures comprises the preparation of a homogeneous cell suspension by mechanical, i.e., non-enzymatic, dissociation of embryonic tissue using Leibovitz's L15 medium (Sigma Aldrich). Aliquots of this suspension are added to Nunc 48-well plates coated beforehand with a thin layer of polyethylenimine (1 mg/ml, borate buffer, pH 8.3) to allow neuronal cells to adhere (see Toulorge et al., Faseb J, 2011). The seeding density is between about 20,000 and 30,000 cells/cm^2. The cortex cultures are maintained in Neurobasal culture medium containing an […] B27 cocktail, N2 supplement, glutamine (2 mM) and a penicillin/streptomycin cocktail (see Nafia et al., J Neurochem, 2008). The medium and the supplement are available from Life Technologies. Six hours after placing in culture, 0.5 μM of the antimitotic cytarabine (Sigma Aldrich) is added to limit the proliferation of astrocytes. Until the moment when the effects of the gases of interest are evaluated, the cultures are placed in a conventional enclosure thermostated at 37° C., wherein CO2 is maintained at 5% by volume and the atmosphere is saturated with water. The culture medium is not changed during the culture period. The degenerative process is triggered by applying a glutamate reuptake system blocker, PDC (Zuiderwijk et al., Europ J Pharmacol, 1994). The NMDA receptor blocker, memantine, is added to the cultures before the application of PDC. These two products (PDC and memantine) are from RD Systems. Once the pharmacological treatments are carried out, the multi-well plates containing the cells in culture and the plate used for humidification of the internal compartment of the chamber are placed on a metal base that receives the Plexiglas incubation chamber. The two parts (base and Plexiglas chamber) are screwed together in a joined manner. A gas mixture of interest comprising (% by volume): 20% O2, 5% CO2 and 75% of the gas tested is then injected into the incubation chamber, with inlet and outlet valves open, while controlling the outlet flow by means of a flowmeter. The gases tested are nitrogen and xenon. The reference outlet flow, set for air at 10 liters/minute, is corrected as a function of the density of the mixture used. When the CO2 measurement at the outlet reaches 5%, the injection of the gas mixture is stopped and the chamber is completely sealed by closing the inlet and outlet valves. The exposure chamber is then placed in a 37° C. enclosure throughout the experimental protocol. After breaking the seal by opening the inlet and outlet valves and unscrewing the chamber from its base, the cultures are fixed with 4% formaldehyde in PBS for 12 minutes and then incubated at 4° C. with a monoclonal anti-MAP-2 antibody (dilution 1:200; clone AP-20; Sigma-Aldrich) for 3 days. This antibody is detected with an anti-mouse secondary antibody coupled with cyanine-3 (Sigma Aldrich; dilution 1:1000 in PBS). Image capturing is carried out with the 10× objective using a Nikon TE-300 inverted microscope equipped with an ORCA-ER cooled digital camera and HCl image capturing software (Hamamatsu). […] The cultures are then collected for fixing and analysis. Neuronal survival is quantified in the various experimental conditions tested by counting the number of cell bodies immunopositive for the pan-neuronal marker MAP-2.

The text below walks through data of patent US20160151412A1, “COMBINATION OF XENON WITH AN NMDA RECEPTOR ANTAGONIST FOR FIGHTING A NEURODEGENERATIVE DISEASE” (L'AIR LIQUIDE, SOCIETE ANONYME POUR L'ETUDE ET …, priority 2013, published 2016).

In the case of `O=C(O)[C@H]1CN[C@H](C(=O)O)C1` (relative stereo) [PDC, L-trans-pyrrolidine-2,4-dicarboxylic acid], for the setting “PDC 30 μM, 75% N2, days 12-16”, the Neuronal survival entry is recorded as “−”. Under “PDC 30 μM, 75% nitrogen”, the “loss of cortical neuronal cells” value was “about 85%”. For the same molecule, where the note is “PDC 30 μM, 75% nitrogen, % of cultures not treated with PDC under 75% nitrogen”, the survival rate was determined as 15.9%.

In the case of `[Xe]` [Xe, xenon], the Neuronal survival entry by setting is: (PDC 30 μM, 75% Xe, days 12-16) “++”; (no PDC, 20% O2 + 5% CO2 + 75% Xe, days 12-16, day-16 cortex cultures) “+++”. Further, the “effect on neuronal survival versus nitrogen-alone condition (ANOVA, Student-Newman-Keuls, p<0.05)” value (PDC 30 μM, 75% xenon without memantine, n=6) was “significantly superior to that of the nitrogen-alone condition”.

Take `CC12CC3CC(C)(C1)CC(N)(C3)C2` [memantine]: the “effect on neuronal survival” value (PDC 30 μM + memantine 0.1 μM alone, 75% nitrogen) is “no significant effect”. In addition, the Neuronal survival result by setting is: (PDC 30 μM + memantine 0.1 μM, 75% N2, days 12-16) “−”; (PDC 30 μM + memantine 1 μM, 75% N2, days 12-16) “++”; (PDC 30 μM + memantine 10 μM, 75% N2, days 12-16) “+++”. The survival rate (PDC 30 μM + memantine 1 μM by itself, 75% nitrogen) came out at 54.6%. The neuronal cells saved result (PDC 30 μM + memantine 10 μM itself, 75% nitrogen) was “more than 90%”.
